Results on 21 compounds are retold here after patent publication US10501421B1, “Substituted benzimidazoles as modulators of Ras signaling” (VANDERBILT UNIVERSITY, priority 2017, dated 2019).

Counter-ions that a name gives are not always drawn. Where only a bound is given, the exact number is not on record here.

Experiment [1] has as its target Ras GEF SOS (Son of Sevenless) (Homo sapiens, UniProt Q07889). As to the kind of experiment: SOS-mediated nucleotide exchange on Ras (BODIPY-GDP fluorescence). Type of experiment: biochemical. Particulars: SOS-mediated exchange of BODIPY-GDP for GTP on Ras. The gist of the method: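 Exchange rates were taken from single-exponential fits of the fluorescence time course as BODIPY-GDP on Ras was replaced by GTP. Compound went in first, then GTP and SOS. Mean rates plotted against concentration gave EC50 by four-parameter dose-response fitting.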

Experiment [2] deals with T1, Son of Sevenless (SOS) (Homo sapiens, UniProt Q07889).
T1 sequence (Q07889 564-1049 limits assumed): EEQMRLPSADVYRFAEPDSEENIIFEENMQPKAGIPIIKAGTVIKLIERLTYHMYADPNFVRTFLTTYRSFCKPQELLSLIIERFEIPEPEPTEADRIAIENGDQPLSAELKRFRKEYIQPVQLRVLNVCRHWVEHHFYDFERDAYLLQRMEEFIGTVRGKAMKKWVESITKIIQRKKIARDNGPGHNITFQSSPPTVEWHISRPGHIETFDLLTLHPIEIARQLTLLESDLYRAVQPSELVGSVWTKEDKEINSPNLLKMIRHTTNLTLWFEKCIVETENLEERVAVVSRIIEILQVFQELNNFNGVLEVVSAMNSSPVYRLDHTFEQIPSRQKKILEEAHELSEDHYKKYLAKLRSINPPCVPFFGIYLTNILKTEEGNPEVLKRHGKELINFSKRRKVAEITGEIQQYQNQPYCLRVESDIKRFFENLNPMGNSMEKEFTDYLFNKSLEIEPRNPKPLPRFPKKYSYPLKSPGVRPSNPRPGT
In words: Binding to SOS, fluorescence polarization anisotropy (FPA) probe displacement. As to conditions: displacement of FITC-conjugated probe (Example 285), affinity calculated from IC50. The gist of the method:
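Test compounds were titrated against SOS pre-bound to a fluorescein-labelled probe, with anisotropy plotted versus compound concentration. Binding affinities were derived from IC50 values obtained by four-parameter dose-response fitting.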

Sequence of Ras GEF SOS (Son of Sevenless) (P01112 1-166 partner limits assumed, one chain of several): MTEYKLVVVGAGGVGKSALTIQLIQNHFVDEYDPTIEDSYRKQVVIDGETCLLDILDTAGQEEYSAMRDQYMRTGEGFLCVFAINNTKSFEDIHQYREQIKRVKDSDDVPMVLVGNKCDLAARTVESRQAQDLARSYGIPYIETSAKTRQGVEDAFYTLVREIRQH

What is called EC50 is the midpoint of the concentration-response curve. A low value points to an effect from little substance. One may read the Ki as a dissociation constant, usually derived from enzyme kinetics or from competition with a known ligand. With `Fc1ccc(CN2C3=NCCCN3c3cc(Cl)ccc32)cc1Cl` [Example 214, 7-chloro-10-(3-chloro-4-fluorobenzyl)-2,3,4,10-tetrahydrobenzo[4,5]imidazo[1,2-a]pyrimidine], the EC50 in experiment [1] lay within 30 to 100 µM. Moreover, the Ki in experiment [2] was above 5 µM.

On to `COc1ccc(-c2nc(C)cc3c2nc(N2CCNCC2)n3Cc2ccc(F)c(C)c2)cc1OC` [Example 230, 4-(3,4-dimethoxyphenyl)-1-(4-fluoro-3-methylbenzyl)-6-methyl-2-(piperazin-1-yl)-1H-imidazo[4,5-c]pyridine], for which, in experiment [1], the EC50 is 5 to 30 µM. Also, in experiment [2], the Ki is above 5 µM.

As for `Cc1cc2c(nc(N3CCNCC3)n2Cc2ccc(F)c(C)c2)c(CNC2CCCC2)n1` [Example 232, N-((1-(4-fluoro-3-methylbenzyl)-6-methyl-2-(piperazin-1-yl)-1H-imidazo[4,5-c]pyridin-4-yl)methyl)cyclopentanamine], the EC50 in experiment [1] was 5 to 30 µM. Further, in experiment [2], the inhibition constant (Ki) was above 5 µM.

`CCC[C@H](N)c1cccc2c1nc(N1CCNCC1)n2Cc1ccc(F)c(Cl)c1` [Example 165, (S)-1-(1-(3-chloro-4-fluorobenzyl)-2-(piperazin-1-yl)-1H-benzo[d]imidazol-4-yl)butan-1-amine trifluoroacetate] had an EC50 in experiment [1] of 1 to 5 µM. Further, the Ki in experiment [2] is 1 to 5 µM.

The compound `Cc1cc2nc(NCCN)n(Cc3ccc(F)cc3)c2cc1C` [Example 22, N^1-(1-(4-fluorobenzyl)-5,6-dimethyl-1H-benzo[d]imidazol-2-yl)ethane-1,2-diamine trifluoroacetate] showed an EC50 in experiment [1] of 5 to 30 µM. Moreover, the Ki in experiment [2] was above 5 µM.

`CCCN1CC[C@@H](C(=O)c2ccccc2)C1c1cc(Cl)cc2c1nc(N1CCNCC1)n2Cc1ccc(F)c(Cl)c1` (stereo in doubt) [Example 154, ((2S,3R)-2-(6-chloro-1-(3-chloro-4-fluorobenzyl)-2-(piperazin-1-yl)-1H-benzo[d]imidazol-4-yl)-1-propylpyrrolidin-3-yl)(phenyl)methanone trifluoroacetate] displayed an EC50 in experiment [1] of 1 to 5 µM. Moreover, the Ki in experiment [2] was 1 to 5 µM.

In experiment [1], `Cc1cc(Cn2c(N3CCNCC3)nc3c(C#Cc4ccccc4)cc(Cl)cc32)cc(C)c1F` [Example 123, 6-chloro-1-(4-fluoro-3,5-dimethylbenzyl)-4-(phenylethynyl)-2-(piperazin-1-yl)-1H-benzo[d]imidazole trifluoroacetate] showed an EC50 of 1 to 5 µM. Further, the Ki in experiment [2] is 1 to 5 µM.

In experiment [1], `Cc1ccccc1-c1c(C)c(C)cc2c1nc(NCCN)n2Cc1cccc(C#N)c1` [Example 116, 3-((2-((2-aminoethyl)amino)-5,6-dimethyl-4-(o-tolyl)-1H-benzo[d]imidazol-1-yl)methyl)benzonitrile trifluoroacetate] yielded an EC50 of 1 to 5 µM. Moreover, the inhibition constant Ki in experiment [2] is 1 to 5 µM.

Take `Cc1ccc2nc(N3CCNCC3)n(Cc3cc(C)c(F)c(C)c3)c2c1` [Example 323, 1-(4-fluoro-3,5-dimethylbenzyl)-6-methyl-2-(piperazin-1-yl)-1H-benzo[d]imidazole]: the EC50 in experiment [1] was below 1 µM. In experiment [2], the Ki is 1 to 5 µM.

Compound `Cc1cc2nc(NCC3CNC3)n(Cc3ccc(F)c(Cl)c3)c2cc1C` [Example 291, N-(azetidin-3-ylmethyl)-1-(3-chloro-4-fluorobenzyl)-5,6-dimethyl-1H-benzo[d]imidazol-2-amine] registered an EC50 in experiment [1] below 1 µM. In addition, in experiment [2], the inhibitory constant (Ki) is 1 to 5 µM.

`Cc1cc2nc(N3CCNC(=O)C3)n(Cc3cc(C)c(F)c(C)c3)c2cc1C` [Example 332, 4-(1-(4-fluoro-3,5-dimethylbenzyl)-5,6-dimethyl-1H-benzo[d]imidazol-2-yl)piperazin-2-one] returned an EC50 in experiment [1] of 5 to 30 µM. For the same compound, in experiment [2], the Ki was above 5 µM.

`Cc1cc(Cn2c(NCCN)nc3c(-c4ccccc4OC(C)C)cc(Cl)cc32)cc(C)c1F` [Example 308, N^1-(6-chloro-1-(4-fluoro-3,5-dimethylbenzyl)-4-(2-isopropoxyphenyl)-1H-benzo[d]imidazol-2-yl)ethane-1,2-diamine] registered a 50% effective concentration (EC50) in experiment [1] of 1 to 5 µM. Besides, in experiment [2], the Ki was below 0.5 µM.

Turning to `N[C@H](c1cc(Cl)cc2c1nc(N1CCNCC1)n2Cc1ccc(F)c(Cl)c1)C1CC1` [Example 167, (S)-(6-chloro-1-(3-chloro-4-fluorobenzyl)-2-(piperazin-1-yl)-1H-benzo[d]imidazol-4-yl)(cyclopropyl)methanamine trifluoroacetate], the concentration for a half-maximal effect (EC50) in experiment [1] was below 1 µM. Also, the inhibition constant (Ki) in experiment [2] was 0.5 to 1 µM.

On to `Cc1cc2c(nc(N3CCNCC3)n2Cc2ccc(F)c(C)c2)c(-c2ccccc2C(C)C)n1` [Example 219, 1-(4-fluoro-3-methylbenzyl)-4-(2-isopropylphenyl)-6-methyl-2-(piperazin-1-yl)-1H-imidazo[4,5-c]pyridine], for which, in experiment [1], the concentration for a half-maximal effect (EC50) was 5 to 30 µM. The Ki in experiment [2] was above 5 µM.

In experiment [1], `Cc1cc2nc(N3CCNCC3)n(CC3CCCCC3)c2cc1C` [Example 37, 1-(cyclohexylmethyl)-5,6-dimethyl-2-(piperazin-1-yl)-1H-benzo[d]imidazole trifluoroacetate] returned an EC50 of 5 to 30 µM. Also, in experiment [2], the inhibitory constant (Ki) is above 5 µM.

Regarding `Cc1cc(NCCCCN(C)C)c2nc(N3CCNCC3)n(Cc3cc(C)c(F)c(C)c3)c2c1` [Example 196, N^1-(1-(4-fluoro-3,5-dimethylbenzyl)-6-methyl-2-(piperazin-1-yl)-1H-benzo[d]imidazol-4-yl)-N^4,N^4-dimethylbutane-1,4-diamine trifluoroacetate], the concentration giving a half-maximal response (EC50) in experiment [1] fell in the range of 1 to 5 µM. In addition, in experiment [2], the Ki is 0.5 to 1 µM.

As to `CC(C)CN1CC[C@@H](C(=O)c2ccccc2)[C@@H]1c1cc(Cl)cc2c1nc(N1CCNCC1)n2Cc1ccc(F)c(Cl)c1` [Example 151, ((2R,3R)-2-(6-chloro-1-(3-chloro-4-fluorobenzyl)-2-(piperazin-1-yl)-1H-benzo[d]imidazol-4-yl)-1-isobutylpyrrolidin-3-yl)(phenyl)methanone trifluoroacetate], the EC50 in experiment [1] was 5 to 30 µM. Besides, the Ki in experiment [2] is above 5 µM.

Take `Cc1cc2nc(N3CCNCC3)n(Cc3cc(F)cc(F)c3)c2cc1C` [Example 18, 1-(3,5-difluorobenzyl)-5,6-dimethyl-2-(piperazin-1-yl)-1H-benzo[d]imidazole trifluoroacetate]: in experiment [1], the EC50 lay in the range of 5 to 30 µM. The inhibition constant (Ki) in experiment [2] was above 5 µM.

The compound `Clc1ccc(Cn2c(N3CCNCC3)nc3ncccc32)cc1` [Example 251, 1-(4-chlorobenzyl)-2-(piperazin-1-yl)-1H-imidazo[4,5-b]pyridine] came in with a concentration giving a half-maximal response (EC50) in experiment [1] of 30 to 100 µM. In addition, in experiment [2], the Ki was above 5 µM.

As for `CC(C)c1ccc(-n2nccc2-c2cc(Cl)cc3c2nc(N2CCNCC2)n3Cc2ccc(F)c(Cl)c2)cc1` [Example 169, 6-chloro-1-(3-chloro-4-fluorobenzyl)-4-(1-(4-isopropylphenyl)-1H-pyrazol-5-yl)-2-(piperazin-1-yl)-1H-benzo[d]imidazole trifluoroacetate], the EC50 in experiment [1] was 1 to 5 µM. The inhibition constant Ki in experiment [2] was above 5 µM.

For `Cc1cc(Cn2c(N3CCNCC3)nc3c(-n4ccc(N)c4)cc(Cl)cc32)cc(C)c1F` [Example 279, 1-[6-chloro-1-[(4-fluoro-3,5-dimethylphenyl)methyl]-2-piperazin-1-ylbenzimidazol-4-yl]pyrrol-3-amine], the EC50 in experiment [1] was 1 to 5 µM. In addition, in experiment [2], the Ki is below 0.5 µM.
